Measured values: patent publication US8962622B2, “Benzotriazole kinase modulators” (Roche Palo Alto LLC, priority 2006, dated 2015)

| Structure (SMILES) | melting point |
| --- | --- |
| COCC(=O)N[C@H]1CC[C@H](Nc2nccc(-n3nnc4ccccc43)n2)CC1 [Example 24, trans-N-[4-(4-Benzotriazol-1-yl-pyrimidin-2-ylamino)-cyclohexyl]-2-methoxy-acetamide] | 233.5 to 235.4 °C |
| OC[C@H]1CCCC[C@H]1Nc1nccc(-n2nnc3ccccc32)n1 [Example 9, (1S,2R)-[2-(4-benzotriazol-1-yl-pyrimidin-2-ylamino)-cyclohexyl]-methanol] | 206.1 to 207.8 °C |
| CN(c1nccc(-n2nnc3ccccc32)n1)[C@H]1CC[C@H](N(C)S(C)(=O)=O)CC1 [Example 14, N-{trans-4-[(4-benzotriazol-1-yl-pyrimidin-2-yl)-methyl-amino]-cyclohexyl}-N-methyl-methanesulfonamide] | 203.5 to 204 °C |

Results, then the compound that gave them:

| melting point | Structure (SMILES) |
| --- | --- |
| 205 to 210 °C | O=C1CCC(=O)N1[C@H]1CC[C@H](Nc2nccc(-n3nnc4ccccc43)n2)CC1 [Example 15, 1-[trans-4-(4-benzotriazol-1-yl-pyrimidin-2-ylamino)-cyclohexyl]-pyrrolidine-2,5-dione] |
| 202.1 to 205.6 °C | CC1(O)CCC(Nc2nccc(-n3nnc4ccccc43)n2)CC1 (stereo not drawn) [Example 17, 4-(4-benzotriazol-1-yl-pyrimidin-2-ylamino)-1-methyl-cyclohexanol] |
| 204.9 to 206.5 °C | O=C1CCC(Nc2nccc(-n3nnc4ccccc43)n2)CC1 [Example 16, 4-(4-benzotriazol-1-yl-pyrimidin-2-ylamino)-cyclohexanone] |
